In PubChem BioAssay (NCI):
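Cells were grown in 96-well plates and exposed to each compound for 48 hours at five concentrations; endpoints were interpolated linearly between bracketing concentrations, or set to the highest concentration if not reached. GI50 marks 50% less growth. Definition used: TGI = concentration required for complete inhibition of growth.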

Key:
Test in all cases: NCI anticancer screen, dose series, 48 h
CAKI-1 renal = test system: CAKI-1 renal
HCT-15 colon = test system: HCT-15 colon
HL-60(TB) leukemia = test system: HL-60(TB) leukemia
HOP-92 NSCLC = test system: HOP-92 NSCLC
IGROV1 ovarian = test system: IGROV1 ovarian
KM12 colon = test system: KM12 colon
MALME-3M melanoma = test system: MALME-3M melanoma
SW-620 colon = test system: SW-620 colon
U251 CNS = test system: U251 CNS
UACC-62 melanoma = test system: UACC-62 melanoma

Row | SMILES | TGI (CAKI-1 renal) [µM] | TGI (HCT-15 colon) [µM] | TGI (HL-60(TB) leukemia) [µM] | TGI (HOP-92 NSCLC) [µM] | TGI (IGROV1 ovarian) [µM] | TGI (KM12 colon) [µM] | TGI (MALME-3M melanoma) [µM] | TGI (SW-620 colon) [µM] | TGI (U251 CNS) [µM] | TGI (UACC-62 melanoma) [µM] | GI50 (HL-60(TB) leukemia) [µM] | GI50 (CAKI-1 renal) [µM] | GI50 (HCT-15 colon) [µM] | GI50 (HOP-92 NSCLC) [µM] | GI50 (IGROV1 ovarian) [µM] | GI50 (KM12 colon) [µM] | GI50 (MALME-3M melanoma) [µM] | GI50 (SW-620 colon) [µM] | GI50 (U251 CNS) [µM] | GI50 (UACC-62 melanoma) [µM]
1 | C=CCSC1=N/C(=C\c2ccccc2)C(=O)N1CC=C | > 100 | > 100 | 18.7 | > 78.1 | > 100 | > 100 | > 100 | > 100 | > 100 | > 100 | – | – | – | – | – | – | – | – | – | –
2 | CCCCOP1(=O)C=C(C)C(=C(Cl)Cl)C(C)=C1 (stereo not drawn) | 27.8 | 40.8 | 8.26 | 4.88 | 49 | 4.45 | 31.6 | > 40 | 22.4 | 21.8 | – | – | – | – | – | – | – | – | – | –
3 | Cc1ccc(N2CCc3c(C)c(C#N)c4nc5ccccc5n4c32)cc1 | > 100 | > 100 | > 100 | 57.5 | > 100 | – | > 100 | > 100 | > 100 | > 100 | – | – | – | – | – | – | – | – | – | –
4 | COC(=O)/C=C1\CCC(C)(C(=O)NS(=O)(=O)c2ccc(C)cc2)C1(C)C (stereo not drawn) | > 100 | > 100 | > 100 | > 100 | > 100 | > 100 | > 100 | > 100 | > 100 | > 100 | – | – | – | – | – | – | – | – | – | –
5 | O=C1COc2ccc([N+](=O)[O-])cc2C(=O)C1 | > 10 | > 10 | > 10 | > 10 | > 10 | > 10 | > 10 | > 10 | > 10 | > 10 | – | – | – | – | – | – | – | – | – | –
6 | NC(=S)Nc1[nH]c(=S)nc2c1SC1=N/C(=C\c3ccco3)C(=O)N12 | > 100 | > 100 | 46.8 | > 100 | > 100 | > 100 | > 83.3 | > 100 | > 100 | > 100 | – | – | – | – | – | – | – | – | – | –
7 | COc1cccc(/C=N/[N-]C(N)=O)c1[O-].[Ni+2].[OH3+].c1cnc2c(c1)ccc1cccnc12 | > 100 | > 100 | > 100 | > 100 | > 100 | > 100 | > 100 | > 100 | > 100 | > 100 | 69.5 | – | – | – | – | – | – | – | – | –
8 | C=C1C(=O)OCC2C(C(=O)O)=CC3C(C)C(C)=CC123 (stereo not drawn) | 62.6 | 43.8 | 26 | 25.5 | 36.1 | 31.2 | 17.6 | 40.9 | 38.6 | 11.8 | – | – | – | – | – | – | – | – | – | –
9 | COC(=O)/C=C(/C(=O)OC)c1c(C)c(C)c2c(C)cc(C)cc(C)c1-2 | > 100 | > 100 | > 100 | > 100 | > 100 | > 100 | > 100 | > 100 | > 100 | > 100 | – | – | – | – | – | – | – | – | – | –
10 | O=[Se](=O)c1ccccc1.O=[Se](=O)c1ccccc1.[Cu] | 38.9 | 34.1 | 15.4 | 37.3 | 37.3 | 24.6 | 31.7 | 33.8 | 30.9 | 18.9 | 6.51 | 22.8 | 16.4 | 21.4 | 18.5 | 9.38 | 16.8 | 17.5 | 17.1 | 6.82
11 | NCCNc1cccc2ccccc12 | > 100 | > 100 | > 100 | > 100 | > 100 | > 100 | > 100 | > 100 | > 100 | > 100 | – | – | – | – | – | – | – | – | – | –
12 | CSC1=C(C#N)C(=O)N(c2ccc(C)cc2)C(=S)C1C#N (stereo not drawn) | > 100 | > 100 | > 100 | > 100 | > 100 | > 100 | > 100 | > 100 | > 100 | > 100 | – | – | – | – | – | – | – | – | – | –
13 | CN(C)CCNC(=O)c1cccc2nc3c(nc12)-c1ccccc1C3=O | 66.4 | 41.4 | 22.7 | 40.9 | > 71.1 | 33.2 | 24.2 | 39.4 | 45.6 | 60.4 | – | – | – | – | – | – | – | – | – | –
14 | O=C1c2c(nc3ccccc3c2-c2ccccc2)CN1Nc1ccccn1 | > 86.9 | > 100 | > 100 | > 79.4 | > 100 | > 100 | > 100 | > 100 | > 100 | > 100 | – | – | – | – | – | – | – | – | – | –
15 | CCOC(=O)CNC(=O)C(C)NC(=O)C(NC(=O)CC(c1ncc[nH]1)c1ncc[nH]1)C(C)CC (stereo not drawn) | > 100 | > 100 | > 100 | > 100 | > 100 | > 100 | > 100 | > 100 | > 100 | > 100 | – | – | – | – | – | – | – | – | – | –
16 | CCOC(=O)/C=C(/C(=O)OCC)n1cc(C)c(=O)n(Cc2cn(COCCOC(C)=O)nn2)c1=O | 23.6 | > 61.9 | 84 | 28.8 | 32.1 | > 62.9 | 23.7 | > 57.6 | > 73.8 | 40.9 | – | – | – | – | – | – | – | – | – | –
17 | O=C1Cc2c([nH]c3ccc(Br)cc23)-c2ccccc2N1 | > 100 | > 100 | > 53.8 | > 100 | > 100 | > 100 | > 100 | – | > 100 | > 100 | – | – | – | – | – | – | – | – | – | –
18 | O=[N+]([O-])c1ccc(N=Nc2c(O)c(S(=O)(=O)O)cc3cc(S(=O)(=O)O)ccc23)cc1 | > 100 | > 100 | > 100 | > 100 | > 100 | – | > 100 | > 100 | > 100 | > 100 | – | – | – | – | – | – | – | – | – | –
19 | O=C1C=C(Br)c2c(Br)sc(Br)c21 | 26.6 | 20.5 | 29.2 | 7.64 | 16.5 | 37.3 | 35.2 | > 20.6 | 41.3 | 29.2 | – | – | – | – | – | – | – | – | – | –
20 | CNC(=O)c1cc(NC(=O)N(CCC#N)CCN(C(=O)N[C@@H](Cc2ccccc2)C(=O)N[C@@H](CC(C)C)C(=O)NC)c2ccccc2)ccc1OC | > 100 | > 100 | > 100 | 71.7 | > 73.2 | > 100 | 38.5 | > 100 | > 100 | > 55.4 | – | – | – | – | – | – | – | – | – | –
